Columns and labels:
Assay type in all cases: cell-based
[1] = test system: cleavage of PARP in p53 WT A2780 cells; assay: Western blot, PARP cleavage; details: 48 hour treatments, various concentrations
Procedure: (§1) For Western blotting, cells (8×10^5) were seeded in a culture dish with 10 mL medium and incubated overnight at 37° C., 5% CO2. Untreated and compound-treated cells were lysed using phosphate lysis buffer and protease inhibitors. The protein concentration of each sample was determined by Bio-Rad DC™ protein assay (Bio-Rad Laboratories, Hercules, CA, United States of America). The protein was deactivated at 95° C. for 5 min and then resolved on 4-20% polyacrylamide gels by electrophoresis. Proteins were transferred to polyvinylidene difluoride (PDVF) membrane and blocked for 1 h with 10% skimmed milk (SM) in Tris-buffered saline and Tween (TBST). After adding primary antibody, the membranes were incubated overnight on a rocker in a 4° C. cold room. The following day, membranes were washed in TBST (4×20 min), incubated for at least 1 h at room temperature with the appropriate horseradish peroxidase conjugated secondary antibody. Following this, the blots were washed with TBST (4×20 min) again. The blots were then treated with Western blotting detection reagent and the band intensity was determined using a Bio-Rad ChemiDoc™ MP imaging system (Bio-Rad Laboratories). All the antibodies used for protein detection were from Cell Signaling Technology (Danvers, MA, United States of America). […]

[2] = test system: auto-phosphorylation of Aurora A at Thr288 in HL-60 cells; assay: Western blot, Aurora A auto-phosphorylation; details: 24 hour, 5 µM, 10 µM and 20 µM
Procedure: as §1

[3] = test system: auto-phosphorylation of Aurora A at Thr288 in NB4 cells; assay: Western blot, Aurora A auto-phosphorylation; details: 24 hour, 5 µM, 10 µM and 20 µM
Procedure: as §1

p53 WT A2780 cells = assay: Apoptosis analysis (Annexin-V FITC/PI); details: 48 hour treatments, various concentrations
Procedure: (§2) Instead of ethanol fixation, the cell number of each sample was counted, and the cells were diluted to 1×10^5 cells with 1 mL PBS in fresh FACS tubes. Cells were centrifuged and then re-suspended in 1 mL of cold PBS (whole step repeated twice). Pelleted cells were resuspended in 100 µL binding buffer, and subsequently 3 µL of Annexin V and 3 µL of PI were added to all tubes and incubated in the dark for 15 min at room temperature. Following the incubation period, 200 µL of 1 x binding buffer was added. Samples were assessed using a flow cytometer (Cytoflex) within 1 h of staining and data were analysed using Cytexpert software.

HL-60 cells = assay: Apoptosis analysis (Annexin-V FITC/PI); details: 48 hour treatment, various concentrations
Procedure: as §2

Jurkat cells = assay: Apoptosis analysis (Annexin-V FITC/PI); details: 48 hour treatment, various concentrations
Procedure: as §2

NB4 cells = assay: Apoptosis analysis (Annexin-V FITC/PI); details: 48 hour treatment, various concentrations
Procedure: as §2

[4] = test system: phosphorylated retinoblastoma (Rb) protein in A2780 cells; assay: Western blot, cell cycle regulatory proteins; details: 24 hour, increasing amounts
Procedure: (§3) For Western blotting, cells (8×10^5) were seeded in a culture dish with 10 mL medium and incubated overnight at 37° C., 5% CO2. Untreated and compound-treated cells were lysed using phosphate lysis buffer and protease inhibitors. The protein concentration of each sample was determined by Bio-Rad DC™ protein assay (Bio-Rad Laboratories, Hercules, CA, United States of America). The protein was deactivated at 95° C. for 5 min and then resolved on 4-20% polyacrylamide gels by electrophoresis. Proteins were transferred to polyvinylidene difluoride (PDVF) membrane and blocked for 1 h with 10% skimmed milk (SM) in Tris-buffered saline and Tween (TBST). After adding primary antibody, the membranes were incubated overnight on a rocker in a 4° C. cold room. The following day, membranes were washed in TBST (4×20 min), incubated for at least 1 h at room temperature with the appropriate horseradish peroxidase conjugated secondary antibody. Following this, the blots were washed with TBST (4×20 min) again. The blots were then treated with Western blotting detection reagent and the band intensity was determined using a Bio-Rad ChemiDoc™ MP imaging system (Bio-Rad Laboratories). All the antibodies used for protein detection were from Cell Signaling Technology (Danvers, MA, United States of America). The primary and secondary antibodies used were obtained from Cell Signalling Technology (Danvers, MA, United States of America).

p53 in A2780 cells = assay: Western blot, cell cycle regulatory proteins; details: 24 hour, increasing concentration
Procedure: as §3

p21 in A2780 cells = assay: Western blot, cell cycle regulatory proteins; details: 24 hour, increasing concentration
Procedure: as §3

cyclin D1 in A2780 cells = assay: Western blot, cell cycle regulatory proteins; details: 24 hour, increasing amounts
Procedure: as §3

## Cc1cc(/C=C/C#N)cc(C)c1Nc1ccnc(Nc2ccc(C#N)cc2)n1 [Rilpivirine, 4-[[4-[4-[(E)-2-cyanoethenyl]-2,6-dimethylanilino]pyrimidin-2-yl]amino]benzonitrile]
[1]
  cleavage of PARP: apoptosis is associated with cleavage of PARP
[2]
  level of auto-phosphorylated Aurora A (Thr288): marked decrease in the level of auto-phosphorylated protein
[3]
  level of auto-phosphorylated Aurora A (Thr288): marked decrease in the level of auto-phosphorylated protein
p53 WT A2780 cells
  induction of apoptosis: induces apoptosis in this cell line in a dose-dependent manner
HL-60 cells
  induction of apoptosis: induces apoptosis in all of these cell lines in a dose-dependent manner
Jurkat cells
  induction of apoptosis: induces apoptosis in all of these cell lines in a dose-dependent manner
NB4 cells
  induction of apoptosis: induces apoptosis in all of these cell lines in a dose-dependent manner
[4]
  amount of phosphorylated Rb protein: decrease
p53 in A2780 cells
  expression of p53 protein: increase in the expression of p53
p21 in A2780 cells
  p21 protein: induced its target gene p21
Cyclin D1 in A2780 cells
  amount of cyclin D1: decrease
